The structures appear in SMILES notation.

The experiment concerns Molt-4 cells. In words: CellTiter-Glo Luminescent Cell Viability Assay (growth inhibition, 72 hour incubation). The experiment is classed as cell-based. As to conditions: Homo sapiens, 72 hours treatment, CellTiter Glo luminescence. An excerpt:
CellTiter-Glo Luminescent Cell Viability Assay Kit was obtained from Promega. RPMI 1640 was obtained from Invitrogen. Fetal Bovine Serum (FBS) was obtained from Corning. L-glutamine was obtained from Invitrogen. 100× Penicillin-Streptomycin was obtained from HyClone. 0.05% Trypsin-EDTA (T-E) was obtained from Invitrogen. DPBS was obtained from Corning. DMSO was obtained from Sigma. Black 384 well plates were obtained from Greiner. 96-well V bottom plates were obtained from Axygen. For cell seeding on Day “−1”, the density of Molt-4 cells was adjusted according to supplier-recommended information. 50 μL cells were seeded in four 384-well-plates, and 50 μL DPBS was added to the edge wells. On Day 0, test compounds were dissolved in DMSO and stored in a nitrogen cabinet. The stock concentration of the test compounds was 120 mM. The stock concentration of the reference compounds was 10 mM. Test compounds (125 nL in DMSO) were added to the wells and serially diluted by three fold, providing 10 doses in each series with a maximum concentration of 300 μM. Equal volumes of DMSO without test compound were transferred to control rows in the well plate. Using this procedure, the DMSO concentration across the well plate was 0.25% (v/v). On Day 3 (after the cells were treated with the compounds for 72 hours), the plates were equilibrated at room temperature for approximately 30 minutes. 25 μL of CellTiter Glo reagent was added to each well, and the luminescence in each well was measured after 10 min using an ENVISION fluorescence plate reader (PerkinElmer). The calculation formula used for data analysis was: Inhibition %=(Max−Sample Value)/Max*100. Curves were fitted by Prism with a Sigmoidal dose-response (variable slope) model and generated by 4 Parameter Logistic Model or Sigmoidal Dose-Response Model, Y=Bottom+(Top−Bottom)/(1+10^((log EC50−x)*HillSlope)). To evaluate the anti-tumor activity of the compounds, the growth inhibitory effect of the compound was measured in various human cancer cell lines after 72 hour incubation. In the assays, the viability of the Molt-4 cells was greater than 85% during the initial cell plating. All the cell plates met the criteria that the coefficient of variation (CV)<10%. Observed IC50 values are summarized below, along with the observed IC50 value for reference compound 6-chloro-3-(2,4-dichloro-5-methoxyphenyl)-2-mercapto-7-methoxyquinazolin-4(3H)-one.
(In general: In ATP-based viability assays light output follows the ATP content of the culture.)
`COc1cc2nc(S)n(-c3cc(OC)c(Cl)cc3Cl)c(=O)c2cc1N` [Compound 8, 6-Amino-3-(2,4-dichloro-5-methoxyphenyl)-2-mercapto-7-methoxyquinazolin-4(3H)-one] gave an IC50 of less than 3000 nM. Molecule `COc1ccc2c(=O)n(-c3cc(OC)c(Cl)cc3Cl)c(S)nc2c1` [Compound 5, 3-(2,4-dichloro-5-methoxyphenyl)-2-mercapto-7-methoxyquinazolin-4(3H)-one] came in with an IC50 of 3000 to 30000 nM. On to `COc1cc(-n2c(S)nc3cc(OC)c(C4CC4)cc3c2=O)c(Cl)cc1Cl` [Compound 9, 6-Cyclopropyl-3-(2,4-dichloro-5-methoxyphenyl)-2-mercapto-7-methoxyquinazolin-4(3H)-one], for which the IC50 was less than 3000 nM. With `COc1cc2nc(S)n(-c3cc(OC)c(OC)cc3Cl)c(=O)c2cc1Cl` [Compound 1, 6-Chloro-3-(2-chloro-4,5-dimethoxyphenyl)-2-mercapto-7-methoxyquinazolin-4(3H)-one], the IC50 was greater than 30000 nM.

As for `COc1cc(-n2c(S)nc3c(C4CC4)c(OC)c(Cl)cc3c2=O)c(Cl)cc1Cl` [Compound 13, 6-Chloro-8-cyclopropyl-3-(2,4-dichloro-5-methoxyphenyl)-2-mercapto-7-methoxyquinazolin-4(3H)-one], the IC50 was 3000 to 30000 nM. For `COc1cc(-n2c(S)nc3cc(OC)c(OC)cc3c2=O)c(Cl)cc1Cl` [Compound 6, 3-(2,4-dichloro-5-methoxyphenyl)-2-mercapto-6,7-dimethoxyquinazolin-4(3H)-one], the IC50 was less than 3000 nM.

`COc1cc(-n2c(S)nc3cc(OC)c(Cl)cc3c2=O)c(Cl)cc1F` [Compound 2, 6-Chloro-3-(2-chloro-4-fluoro-5-methoxyphenyl)-2-mercapto-7-methoxyquinazolin-4(3H)-one] had an IC50 of 3000 to 30000 nM. As to `COc1cc(-n2c(S)nc3cc(C4CC4)c(Cl)cc3c2=O)c(Cl)cc1Cl` [Compound 11, 6-Chloro-7-cyclopropyl-3-(2,4-dichloro-5-methoxyphenyl)-2-mercaptoquinazolin-4(3H)-one], the IC50 was in the range of 3000 to 30000 nM. On to `COc1cc2nc(S)n(-c3cc(OC)c(Cl)cc3Cl)c(=O)c2cc1O` [Compound 7, 3-(2,4-Dichloro-5-methoxyphenyl)-6-hydroxy-2-mercapto-7-methoxyquinazolin-4(3H)-one], for which the IC50 was less than 3000 nM.

`COc1cc(-n2c(S)nc3cc(OC)c(Cl)cc3c2=O)c(Cl)cc1Cl` [Ref. 1, 6-chloro-3-(2,4-dichloro-5-methoxyphenyl)-2-mercapto-7-methoxyquinazolin-4(3H)-one, reference compound]: the IC50 was 3000 to 30000 nM. Regarding `COc1cc2nc(S)n(-c3cc(F)c(Cl)cc3Cl)c(=O)c2cc1Cl` [Compound 4, 6-Chloro-3-(2,4-dichloro-5-fluorophenyl)-2-mercapto-7-methoxyquinazolin-4(3H)-one], the IC50 lay within 3000 to 30000 nM.

In turn, `Cc1cc(-n2c(S)nc3ccc(Cl)cc3c2=O)c(Cl)cc1Cl` [Compound 10, 6-chloro-3-(2,4-Dichloro-5-methylphenyl)-2-mercaptoquinazolin-4(3H)-one] yielded an IC50 of 3000 to 30000 nM. Turning to `C=Cc1c(OC)c(Cl)cc2c(=O)n(-c3cc(OC)c(Cl)cc3Cl)c(S)nc12` [Compound 12, 6-Chloro-3-(2,4-dichloro-5-methoxyphenyl)-2-mercapto-7-methoxy-8-vinylquinazolin-4(3H)-one], the IC50 is greater than 30000 nM. In turn, `COc1cc(-n2c(S)nc3cc(OC)c(Cl)cc3c2=O)c(OC)cc1Cl` [Compound 3, 6-Chloro-3-(4-chloro-2,5-dimethoxyphenyl)-2-mercapto-7-methoxyquinazolin-4(3H)-one] showed an IC50 of 3000 to 30000 nM.

What is called IC50 is the midpoint of a concentration-inhibition curve. The low end stands for greater potency, the high end for weaker potency.

The values above are taken from patent US12454514B2, “Quinazolinone compounds” (Cerepeut, Inc., priority 2019, dated 2025).
